[TBDPS-acyc] = code of the source, not defined here; d = 2'-deoxy (DNA)
System: oligonucleotide made from sequence number 2
Experiment: Stability of the double strand (Tm value)
Assay type: physicochemical
Settings: double strand with oligonucleotide of sequence number 2; annealing buffer 10 mM sodium phosphate (pH 7.0), 1 M NaCl

| Substance | Tm value [°C] |
| --- | --- |
| Comparative Example 2: Double-stranded oligonucleotide composed of the oligonucleotides made from sequence number 3 and sequence number 2 (chain 1 AAGGAAAAGAGGAAAGA; chain 2 TCTTTCCTCTTTTCCTT; DNA, backbone not given here) | 57.7 |
| Example 10: Double-stranded oligonucleotide analog composed of the oligonucleotide analog of sequence number 1 and the oligonucleotide of sequence number 2 (chain 1 AAGGAAAAGAGGAAAGA; chain 2 TCTTTCCTCTTTTCCTT; chain 1: sugars from the 5' end d7 [TBDPS-acyc]1 d9, backbone not given here; chain 2: DNA, backbone not given here) | 49.1 |

Source: patent US20070249548A1, “Nucleoside Analog or Salts of the Same” (GIFU UNIVERSITY, priority 2004, published 2007)
